{"source": "patent US7022705B2", "about": "“Isoxazoline derivatives useful as antimicrobials” (AstraZeneca AB, priority 2001, dated 2006)", "assay_type_in_all_cases": "cell-based", "key": {"Moraxella catarrhalis": {"test_system": "Moraxella catarrhalis", "test": "MIC, Mueller-Hinton broth, Moraxella catarrhalis", "details": "Mueller-Hinton broth with hemin and NAD, aerobic, 24 hours, 37° C., 5×10^4 CFU/well", "description": "(§1) The following results were obtained on a standard in-vitro test system. The activity is described in terms of the minimum inhibitory concentration (MIC) determined by the agar-dilution technique with an inoculum size of 10^4 CFU/spot. Typically, compounds are active in the range 0.01 to 256 μg/ml.\n(§2) Streptococci and enterococci were tested on agar supplemented with 5% defibrinated horse blood, an inoculum of 10^4 CFU/spot and an incubation temperature of 37° C. in an atmosphere of 5% carbon dioxide for 48 hours—blood is required for the growth of some of the test organisms. Fastidious Gram negative organisms were tested in Mueller-Hinton broth, supplemented with hemin and NAD, grown aerobically for 24 hours at 37° C., and with an innoculum of 5×10^4 CFU/well."}, "Streptococcus pneumoniae": {"test_system": "Streptococcus pneumoniae", "test": "MIC, agar with 5% horse blood, Streptococcus pneumoniae", "details": "agar with 5% defibrinated horse blood, 10^4 CFU/spot, 37° C., 5% carbon dioxide, 48 hours", "description": "as §1, §2"}, "Haemophilus influenzae": {"test_system": "Haemophilus influenzae", "test": "MIC, Mueller-Hinton broth, Haemophilus influenzae", "details": "Mueller-Hinton broth with hemin and NAD, aerobic, 24 hours, 37° C., 5×10^4 CFU/well", "description": "as §1, §2"}, "[1]": {"test_system": "Staphylococcus aureus MSQS (methicillin sensitive and quinolone sensitive)", "test": "MIC, agar-dilution, Staphylococcus aureus MSQS", "details": "inoculum 10^4 CFU/spot, 37° C., 24 hours", "description": "as §1\n(§3) Staphylococci were tested on agar, using an inoculum of 10^4 CFU/spot and an incubation temperature of 37° C. for 24 hours—standard test conditions for the expression of methicillin resistance."}, "Streptococcus pyogenes": {"test_system": "Streptococcus pyogenes", "test": "MIC, agar with 5% horse blood, Streptococcus pyogenes", "details": "agar with 5% defibrinated horse blood, 10^4 CFU/spot, 37° C., 5% carbon dioxide, 48 hours", "description": "as §1, §2"}, "[2]": {"test_system": "Staphylococcus aureus MRQR (methicillin resistant and quinolone resistant)", "test": "MIC, agar-dilution, Staphylococcus aureus MRQR", "details": "inoculum 10^4 CFU/spot, 37° C., 24 hours", "description": "as §1, §3"}}}
{"smiles": "Fc1cc(C2=NOC(Cn3ccnn3)C2)ccc1N1CCNCC1", "note": "(racemic) [Example 7, (5RS)-3-(3-Fluoro-4-piperazin-1-ylphenyl)-5-(1,2,3-triazol-1-yl-methyl)-4,5-dihydroisoxazole]", "values": [{"measurement": "MIC", "setting": "Moraxella catarrhalis", "value": 32, "unit": "µg/mL"}, {"measurement": "MIC", "setting": "Streptococcus pneumoniae", "value": 1, "unit": "µg/mL"}, {"measurement": "MIC", "setting": "Haemophilus influenzae", "value": 32, "unit": "µg/mL"}, {"measurement": "MIC", "setting": "[1]", "value": 8, "unit": "µg/mL"}, {"measurement": "MIC", "setting": "Streptococcus pyogenes", "value": 2, "unit": "µg/mL"}, {"measurement": "MIC", "setting": "[2]", "value": 16, "unit": "µg/mL"}]}
